{"source": "patent US6376540B1", "about": "“Furan nitrone compounds” (Centaur Pharmaceuticals, Inc., priority 1996, dated 2002)", "key": {"synthetic Aβ(1-40)": {"target": "T1, synthetic Aβ(1-40) (Homo sapiens, UniProt P05067)", "T1 construct": "3 μL of Aβ(1-40)(3 μg) prepared with dH2O", "T1 sequence (P05067 672-711 limits assumed)": "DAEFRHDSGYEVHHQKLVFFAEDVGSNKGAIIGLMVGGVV", "assay": "Inhibition of Aβ(1-40) beta-pleated sheet formation (ThT fluorescence)", "type": "biochemical", "details": "10 μM compound, ThT 3 μM, PBS pH 6.0, 12 hours; for inhibition at 10 µM: read-out: inhibition of Aβ(1-40) beta-pleated sheet formation compared to the controls", "from_the_text": "The deposition of amyloid β-peptide (Aβ) is associated with the development of Alzheimer's disease. See, for example, G. G. Glenner et al. (1984) Biochem. Biophys. Res. Commun., 120:885-890; and R. E. Tanzi (1989) Ann. Med., 21:91-94. Accordingly, compounds which effectively disrupt the formation of Aβ(1-40) or Aβ(1-42) beta-pleated sheets are potentially useful for preventing and/or reversing such amyloid deposits. Thioflavin T (ThT) is known to rapidly associate with beta-pleated sheets, particularly the aggregated fibrils of synthetic Aβ(1-40). This association gives rise to a new excitation maximum at 440 nm and to enhanced emission at 490 nm.\nThe experiments were performed using a CytoFluor II fluorescence plate reader having the following parameters:\nInto each well was aliquoted 95 μl of ThT (3 μM) prepared in PBS (pH 6.0), 2 μL of the compound to be tested (10 μM) prepared with 0.05% of methylcellulose in PBS (pH 6.0), and 3 μL of Aβ(1-40)(3 μg) prepared with dH2O (the compounds prepared in Examples 1, 3, 4, 5, 6, 7, 8, 9, 11 and 12 were tested). The fluorescence measurement began when the Aβ(1-40) was added and continued for a total of 12 hours. The percent inhibition of beta-pleated sheet formation was calculated from the relative fluorescence unit difference between aggregation in the presence and in the absence of the test compounds."}, "THP-1 cells": {"system": "THP-1 cells", "assay": "Reduction of β-amyloid-induced increased IL-1β release (ELISA)", "type": "cell-based, human", "details": "100 μM test compound with LPS and Aβ25-35, 48 hours", "procedure": "THP-1 cells, a human monocyte cell line from American Type Culture Collection, were grown in RPMI-1640 medium plus 10% fetal bovine serum (FBS, not heat-inactivated) in T-flasks. The medium was changed every two days by spinning down (800 rpm, 5 minutes) the cells and added the same fresh medium. Alternatively, the cultures were maintained by the addition of fresh medium. The cultures were maintained at a cell concentration ranging from between 1×10^5 and 1×10^6 cells/mL. Because sera may contain unknown factors which can affect macrophage/monocyte IL-1 production, the FBS was reduced to 5% for 24 hours. The FBS was further reduced to 2% over two days prior to starting each experiment. The cells were collected by centrifugation and resuspended to 2% FBS. Cell numbers were calculated and cells were plated on 24-well plates (3×10^5 cells/0.6 mL/well). Cells were then treated with LPS (0.5 μg/ml or 0-10 μg/ml for LPS dose-response experiments) alone or in combination with Aβ peptides (5 μM or 0.05-5 μM for dose-response experiments). When determining the effect of the test compounds on cytokine release, 100 μM of the test compound was added with the LPS and Aβ25-35 and this mixture was incubated for 48 hours prior to performing ELISA.\nIL-1β secretions into medium by LPS-stimulated THP-1 cells, in the presence or absence of amyloid peptides and a test compound, were assayed with a commercially available ELISA kit (R & D Systems). Briefly, a microtiter plate coated with a murine monoclonal antibody to human IL-1β was supplied by the manufacturer. Standards and samples were pipetted into the wells and any IL-1β present was bound by the immobilized antibody. Unbound proteins were washed away and a horseradish peroxidase-linked polyclonal antibody specific for IL-1β was added to the wells to “sandwich”the IL-1β bound in the initial step. […] Color development was stopped with 2 N sulfuric acid and the optical density of the standard and the test samples was measured at 450 nm. The amounts of IL-1β present in the samples were calculated based upon a standard curve. […]"}, "[1]": {"system": "primary neuronal/astrocyte cultures", "assay": "Protection against Aβ(25-35)-induced neuronal cell loss", "type": "cell-based, Sprague Dawley rat", "details": "100 μM test compound, 30 μM Aβ(25-35), 96 hours", "procedure": "Patients with Alzheimer's disease are known to suffer a progressive loss of neuronal cells. See, for example, P. J. Whitehause et al., (1982) Science, 215:1237-1239. […] Sprague Dawley rat hippocampus of 18-day-gestation embryos was excised and then dissociated by trituration to prepare primary neuronal/astrocyte cultures. Cells (3×10^5) were plated on 35 mm poly-D-lysine-coated plates containing Eagle's minimum essential medium supplemented with 10% fetal bovine serum. After 3-5 hours, the original medium was removed and replaced with 1 mL of fresh medium. Cultures were maintained at 37° C. in a 5% CO2/95% air humidified incubator.\nTo the cells (7 DIV) was added 30 μM of Aβ(25-35) dissolved in dH2O (stored at −20° C.) and 100 μM of the test compound (i.e., a compound of Example 1, 3, 4, 5, 6, 7, 8, 12 or 13 above) in 1% methylcellulose. Controls were also conducted without the test compound. The percentage of morphologically viable neurons was determined counting the number of viable neurons after 96 hours treatment compared to the number of neurons before treatment in the same premarked culture regions (three regions/culture, n=6)."}, "[2]": {"assay": "Free radical trapping, DCF oxidation, ferrous iron system", "type": "biochemical", "details": "100 μM test compound, 100 μM FeSO4, 50 μM DCF in MEM, 37° C., 2 hrs", "procedure": "(§1) Dichlorofluorescein (DCF) is a compound that fluoresces when oxidized by reactive oxygen species (ROS), such as hydroxyl, peroxyl, or alkoxyl free radicals. Test compounds were evaluated for their ability to scavenge radicals by determining their capacity to prevent the DCF oxidation in a radical generating environment. Two radical generating systems were used: (i) ferrous iron and (ii) tert-butyl hydroperoxide. When ferrous iron is placed in normoxic solution, it autooxidizes to produce ROS in the form of hydroxyl radicals, superoxide anion free radicals, and hydrogen peroxide. Similarly, when tert-butyl hydroperoxide is placed in non-chelated media, trace metals catalyze its oxidation to yield alkoxy, peroxyl, and alkyl free radicals.\n(§2) In this assay, either 100 μM FeSO4 or 25 μM tert-butyl hydroperoxide were mixed with 50 μM DCF and 100 μM of the test compound in MEM and the mixture was incubated at 37° C. for 2 hrs. The fluorescence wavelengths measured were 485 nm for excitation and 530 nm for emission. In these tests, N-isopropyl-α-(2-sulfofuran-5-yl)nitrone sodium salt (prepared in Example 1 above) reduced fluorescence by 20% in the Fe^+2 assay and by 13% in the tert-butyl hydroperoxide assay. In comparison, a known free radical trap, N-tert-butyl-α-phenylnitrone (PBN) reduced fluorescence by 48% in the Fe^+2 assay and by 9% in the tert-butyl hydroperoxide assay."}, "[3]": {"assay": "Free radical trapping, DCF oxidation, tert-butyl hydroperoxide system", "type": "biochemical", "details": "100 μM test compound, 25 μM tert-butyl hydroperoxide, 50 μM DCF in MEM, 37° C., 2 hrs", "procedure": "as §1, §2"}}, "data": [{"compound": "CCCC[N+]([O-])=Cc1ccc(S(=O)(=O)O)o1", "note": "[Example 3, N-n-Butyl-α-(2-sulfofuran-5yl)nitrone]", "values": [{"measurement": "inhibition of Aβ(1-40) beta-pleated sheet formation compared to the controls", "setting": "synthetic Aβ(1-40)", "value": "did not significantly reduce"}]}, {"compound": "CC(C)[N+]([O-])=Cc1ccc(S(=O)(=O)N2CCN(C)CC2)o1.Cl", "note": "[Example 15, N-Isopropyl-α-[2-(N-4-methylpiperazin-1-ylsulfonyl)-furan-5-yl]nitrone Hydrochloride]", "values": [{"measurement": "reduction of the β-amyloid-induced increased release of interleukin-1β compared to the controls", "setting": "THP-1 cells", "value": "did not significantly reduce"}]}, {"compound": "O=S(=O)(O)c1ccc(C=[N+]([O-])Cc2ccccc2)o1", "note": "[Example 9, N-Benzyl-α-(2-sulfofuran-5-yl)nitrone]", "values": [{"measurement": "inhibition at 10 µM", "setting": "synthetic Aβ(1-40)", "value": "15 to 71", "unit": "%"}]}, {"compound": "CCN(CC)S(=O)(=O)c1ccc(C=[N+]([O-])C(C)C)o1", "note": "[Example 12, N-Isopropyl-α-[2-(N,N-diethylsulfamoyl)furan-5-yl]nitrone]", "values": [{"measurement": "inhibition at 10 µM", "setting": "synthetic Aβ(1-40)", "value": "15 to 71", "unit": "%"}]}, {"compound": "N-Adamantyl-α-(2-sulfofuran-5-yl)nitrone [Example 8]", "values": [{"measurement": "inhibition of Aβ(1-40) beta-pleated sheet formation compared to the controls", "setting": "synthetic Aβ(1-40)", "value": "did not significantly reduce"}]}, {"compound": "CC(C)[N+]([O-])=Cc1ccc(S(=O)(=O)N2CCOCC2)o1", "note": "[Example 11, N-Isopropyl-α-[2-(N-morpholinosulfonyl)furan-5-yl]nitrone]", "values": [{"measurement": "reduction of the β-amyloid-induced increased release of interleukin-1β compared to the controls", "setting": "THP-1 cells", "value": "did not significantly reduce"}]}, {"compound": "CC(C)[N+]([O-])=Cc1ccc(S(=O)(=O)N2CCN(C)CC2)o1", "note": "[Example 14, N-Isopropyl-α-[2-(N-4-methylpiperazin-1-ylsulfonyl)furan-5-yl]nitrone]", "values": [{"measurement": "reduction of the β-amyloid-induced increased release of interleukin-1β compared to the controls", "setting": "THP-1 cells", "value": "did not significantly reduce"}]}, {"compound": "O=S(=O)(O)c1ccc(C=[N+]([O-])C2CCCCC2)o1", "note": "[Example 6, N-Cyclohexyl-α-(2-sulfofuran-5-yl)nitrone]", "values": [{"measurement": "inhibition at 10 µM", "setting": "synthetic Aβ(1-40)", "value": "15 to 71", "unit": "%"}]}, {"compound": "CCCCCC[N+]([O-])=Cc1ccc(S(=O)(=O)O)o1", "note": "[Example 5, N-n-Hexyl-α-(2-sulfofuran-5-yl)nitrone]", "values": [{"measurement": "inhibition at 10 µM", "setting": "synthetic Aβ(1-40)", "value": "15 to 71", "unit": "%"}]}, {"compound": "CC(C)(C)[N+]([O-])=Cc1ccc(S(=O)(=O)O)o1", "note": "[Example 4, N-tert-Butyl-α-(2-sulfofuran-5-yl)nitrone]", "values": [{"measurement": "inhibition of Aβ(1-40) beta-pleated sheet formation compared to the controls", "setting": "synthetic Aβ(1-40)", "value": "did not significantly reduce"}, {"measurement": "reduction of Aβ(25-35)-induced neuronal cell loss compared to the controls", "setting": "[1]", "value": "did not significantly reduce"}]}, {"compound": "CC(C)(C)[N+]([O-])=Cc1ccccc1", "note": "[PBN, N-tert-butyl-α-phenylnitrone, reference compound]", "values": [{"measurement": "reduced fluorescence in the Fe^+2 assay", "setting": "[2]", "value": 48, "unit": "%"}, {"measurement": "reduced fluorescence in the tert-butyl hydroperoxide assay", "setting": "[3]", "value": 9, "unit": "%"}]}, {"compound": "CC(C)(C)CC(C)(C)[N+]([O-])=Cc1ccc(S(=O)(=O)O)o1", "note": "[Example 7, N-tert-Octyl-α-(2-sulfofuran-5-yl)nitrone]", "values": [{"measurement": "inhibition at 10 µM", "setting": "synthetic Aβ(1-40)", "value": "15 to 71", "unit": "%"}]}]}
